Laboratory results from patent publication US11014964B2, “Peptide amide compound and preparation method and medical use thereof” (Sichuan Haisco Pharmaceutical Co., Ltd., priority 2017, dated 2021).

Experiments:
Rat PK test = assay type: in vivo; conditions: male SD rats, iv, 1 mg/kg (calculated in free form)
Mouse PK test = assay type: in vivo; conditions: plasma, male ICR mice, iv, 1 mg/kg (calculated in free form)
human κ-opioid receptor = molecular target: T1, human κ-opioid receptor (Homo sapiens, UniProt P41145); assay: Agonist activity on human κ-opioid receptors (inhibition of forskolin-stimulated cAMP release, TR-FRET); assay type: cell-based; conditions: OPRK1 cells (DiscoveRx)
T1 construct: host or cells: OPRK1 cells (DiscoveRx)
T1 sequence (P41145 whole entry): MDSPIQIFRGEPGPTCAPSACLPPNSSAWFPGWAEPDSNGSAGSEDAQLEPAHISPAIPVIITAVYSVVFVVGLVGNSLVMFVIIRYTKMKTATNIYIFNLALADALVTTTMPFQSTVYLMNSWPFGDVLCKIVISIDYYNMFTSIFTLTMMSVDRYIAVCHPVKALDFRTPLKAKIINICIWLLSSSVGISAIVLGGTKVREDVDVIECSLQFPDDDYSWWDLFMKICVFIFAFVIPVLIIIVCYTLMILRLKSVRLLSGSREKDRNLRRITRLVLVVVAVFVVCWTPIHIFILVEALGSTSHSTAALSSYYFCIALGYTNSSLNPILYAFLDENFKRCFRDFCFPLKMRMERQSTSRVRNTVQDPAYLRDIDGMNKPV
Source text: Test 1: Agonist Activity on Human κ-Opioid Receptors
Forskolin can stimulate the release of cAMP from a human κ-opioid receptor-overexpressing cell line, OPRK1 cells (DiscoveRx), and κ-opioid receptor agonists can inhibit the cAMP release stimulated by forskolin. By detecting the inhibitory effect of the test compound on the cAMP release stimulated by forskolin, the agonistic activity of the compound on the human κ-opioid receptor can be determined. First, a certain concentration of forskolin and different concentrations of the test compound were incubated with human κ-opioid receptor overexpressing cell lines. A cAMP immunoassay (LANCE®, PerkinElmer) based on time-resolved fluorescence resonance energy transfer (TR-FRET) was used to determine cAMP levels in the stimulated OPRK1 cells. The specific method is as follows:
OPRK1 cells (DiscoveRx) that highly express human κ-opioid receptors were cultured in McCoy's 5A (Gibco 16600-082) medium containing 10% FBS (Gibco 10099-141). On the day of the experiment, the cells in the exponential growth phase were washed and separated with PBS/5 mM EDTA, collected by centrifugation, resuspended with Stimulation Buffer and counted. The concentration of cells was adjusted to 3*10^5 cells/ml. DMSO was used to dissolve Forskolin and the test compound respectively, so that the mother liquor concentration each was 10 mM, and then diluted Forskolin to […] with Stimulation Buffer, and different concentrations of the test compound (the concentrations were 80, 16, 3.2, 0.64, 0.128, 0.0256, 0.00512, 0.001024, 0 μM) was added, 5 μl per well was added to a 384-well plate. 5 μl of cell suspension was added to each well and incubated at room temperature for 30 min. Subsequently, 5 μl of 4×Eu-cAMP tracer working solution (50-fold dilution of Eu-cAMP stock solution with cAMP Detection Buffer) and 5 μl of 4×Ulight-anti-cAMP working solution (150-fold dilution of ULight-anti-cAMP stock solution with cAMP Detection Buffer) were added to each well, and incubated at room temperature for 1 hour. 384-well plates were assayed for cAMP levels using a microplate reader (Perkin Elmer, Envision) TR-FRET method. The obtained data were processed and fitted to EC50 using the origin 7.5 software. The human κ-opioid receptor agonistic activity of the compound of the present invention was measured through the above experiments, and the measured EC50 values are shown in Table 1.
Stimulation Buffer preparation method: 14 mL 1*HBSS (invitrogen, cat. #14025-092), 75 μL 1 M HEPES (Invitrogen, cat. #15630-080), 30 μL 250 mM IBMX was dissolved in DMSO (Sigma, cat. #17018) and mixed with 200 μL 7.5% BSA Stabilizer. pH of the solution was adjusted to 7.4 with 0.1 N NaOH and make up to 15 mL with 1*HBSS.

Structure (SMILES) | EC50 (human κ-opioid receptor) [nM] | further results
CC(C)C[C@@H](NC(=O)[C@@H](Cc1ccccc1)NC(=O)[C@H](N)Cc1ccccc1)C(=O)N[C@H](CCCCN)C(=O)N1CCC(N)(C(=O)O)CC1 [CR-845] |  | Cl (Rat PK test): 8.29 ml/kgmin; AUC(0-t) (Rat PK test; rat, plasma): 1960 ng·h/mL; half-life (Rat PK test; rat, plasma): 3.9 h; Vd (Rat PK test; rat, plasma, read-out: Vdss): 1.56 L/kg; AUC(0-t) (Mouse PK test): 1120 ng·h/mL; half-life (Mouse PK test): 0.388 h
CC(C)C[C@@H](NC(=O)[C@@H](Cc1ccccc1)NC(=O)[C@H](N)Cc1ccccc1)C(=O)N[C@H](CCCCN)C(=O)N1CC2(CCN(S(C)(=O)=O)CC2)C1 [Compound 12, (2R)—N-[(1R)-5-amino-1-(7-methylsulfonyl-2,7-diazaspiro[3.5]nonane-2-carbonyl)pentyl]-2-[[(2R)-2-[[(2R)-2-amino-3-phenyl-propanoyl]amino]-3-phenyl-propanoyl]amino]-4-methyl-pentanamide; di-trifluoroacetic acid] | 0.067 | 
CC(C)C[C@@H](NC(=O)[C@@H](Cc1ccccc1)NC(=O)[C@H](N)Cc1ccccc1)C(=O)N[C@H](CCCCN)C(=O)N1CCC2(CC1)CN(C(=O)N1CCCC1)C2 [Compound 13, (2R)-2-[[(2R)-2-[[(2R)-2-amino-3-phenyl-propanoyl]amino]-3-phenyl-propanoyl]amino]-N-[(1R)-5-amino-1-[2-(pyrrolidin-1-carbonyl)-2,7-diazaspiro[3.5]nonane-7-carbonyl]pentyl]-4-methyl-pentanamide; di-trifluoroacetic acid] | 0.00682 | 
CC(C)C[C@@H](NC(=O)[C@@H](Cc1ccccc1)NC(=O)[C@H](N)Cc1ccccc1)C(=O)N[C@H](CCCCN)C(=O)N1CCC2(CC1)CN(C(=O)N1CC(S(C)(=O)=O)C1)C2 [Compound 14, (2R)—N-[(1R)-5-amino-1-[2-(3-methylsulfonylazetidine-1-carbonyl)-2,7-diazaspiro[3.5]nonane-7-carbonyl]pentyl]-2-[[(2R)-2-[[(2R)-2-amino-3-phenyl-propanoyl]amino]-3-phenyl-propanoyl]amino]-4-methyl-pentanamide; di-trifluoroacetic acid] | 0.0155 | 
CC(C)C[C@@H](NC(=O)[C@@H](Cc1ccccc1)NC(=O)[C@H](N)Cc1ccccc1)C(=O)N[C@H](CCCCN)C(=O)N1CCC2(CC1)CN(C(=O)[C@@H](C)N)C2 [Compound 17, (2R)—N-[(1R)-5-amino-1-[2-[(2R)-2-aminopropanoyl]-2,7-diazaspiro[3.5]nonane-7-carbonyl]pentyl]-2-[[(2R)-2-[[(2R)-2-amino-3-phenyl-propanoyl]amino]-3-phenyl-propanoyl]amino]-4-methyl-pentanamide; tri-trifluoroacetic acid] | 0.00919 | AUC(0-t) (Mouse PK test): 2240 ng·h/mL; half-life (Mouse PK test): 3.88 h
CC(C)C[C@@H](NC(=O)[C@@H](Cc1ccccc1)NC(=O)[C@H](N)Cc1ccccc1)C(=O)N[C@H](CCCCN)C(=O)N1CC2(CCN(C(=O)[C@@H](C)N)CC2)C1 [Compound 18, (2R)—N-[(1R)-5-amino-1-[7-[(2R)-2-aminopropanoyl]-2,7-diazaspiro[3.5]nonane-2-carbonyl]pentyl]-2-[[(2R)-2-[[(2R)-2-amino-3-phenyl-propanoyl]amino]-3-phenyl-propanoyl]amino]-4-methyl-pentanamide; tri-trifluoroacetic acid] | 0.04 | 
CC(C)C[C@@H](NC(=O)[C@@H](Cc1ccccc1)NC(=O)[C@H](N)Cc1ccccc1)C(=O)N[C@H](CCCCN)C(=O)N1CC2(CCN(C(=O)[C@@H](C)N)CC2(F)F)C1 [Compound 19, (2R)—N-[(1R)-5-amino-1-[7-[(2R)-2-aminopropanoyl]-5,5-difluoro-2,7-diazaspiro[3.5]nonane-2-carbonyl]pentyl]-2-[[(2R)-2-[[(2R)-2-amino-3-phenyl-propanoyl]amino]-3-phenyl-propanoyl]amino]-4-methyl-pentanamide; tri-trifluoroacetic acid] | 0.044 | 
CC(=O)N1CCC2(CC1)CN(C(=O)[C@@H](CCCCN)NC(=O)[C@@H](CC(C)C)NC(=O)[C@@H](Cc1ccccc1)NC(=O)[C@H](N)Cc1ccccc1)C2 [Compound 20, (2R)—N-[(1R)-1-(7-acetyl-2,7-diazaspiro[3.5]nonane-2-carbonyl)-5-amino-pentyl]-2-[[(2R)-2-[[(2R)-2-amino-3-phenyl-propanoyl]amino]-3-phenyl-propanoyl]amino]-4-methyl-pentanamide; di-trifluoroacetic acid] | 0.086 | 
CNC(=O)N1CCC2(CCN(C(=O)[C@@H](CCCCN)NC(=O)[C@@H](CC(C)C)NC(=O)[C@@H](Cc3ccccc3)NC(=O)[C@H](N)Cc3ccccc3)C2)C1 (stereo partly drawn) [Compound 22, 7-[(2R)-6-amino-2-[[(2R)-2-[[(2R)-2-[[(2R)-2-amino-3-phenyl-propanoyl]amino]-3-phenyl-propanoyl]amino]-4-methyl-pentanoyl]amino]hexanoyl]-N-methyl-2,7-diazaspiro[4.4]nonane-2-carboxamide; di-trifluoroacetic acid] | 0.0112 | 
CC(C)C[C@@H](NC(=O)[C@@H](Cc1ccccc1)NC(=O)[C@H](N)Cc1ccccc1)C(=O)N[C@H](CCCCN)C(=O)N1CCC2(CC1)CC(N1CCCCC1)C2 [Compound 23, (2R)-2-[[(2R)-2-[[(2R)-2-amino-3-phenyl-propanoyl]amino]-3-phenyl-propanoyl]amino]-N-[(1R)-5-amino-1-[2-(1-piperidinyl)-7-azaspiro[3.5]nonane-7-carbonyl]pentyl]-4-methyl-pentanamide; tri-trifluoroacetic acid] | 0.023 | 
CC(=O)N1CCC2(C1)CN(C(=O)[C@@H](CCCCN)NC(=O)[C@@H](CC(C)C)NC(=O)[C@@H](Cc1ccccc1)NC(=O)[C@H](N)Cc1ccccc1)C2 [Compound 30, (2R)—N-[(1R)-1-(7-acetyl-2,7-diazaspiro[3.4]octane-2-carbonyl)-5-amino-pentyl]-2-[[(2R)-2-[[(2R)-2-amino-3-phenyl-propanoyl]amino]-3-phenyl-propanoyl]amino]-4-methyl-pentanamide; di-trifluoroacetic acid] | 0.071 | 
CC(=O)N1CCC2(CCN(C(=O)[C@@H](CCCCN)NC(=O)[C@@H](CC(C)C)NC(=O)[C@@H](Cc3ccccc3)NC(=O)[C@H](N)Cc3ccccc3)C2)C1 (stereo partly drawn) [Compound 31, (2R)—N-[(1R)-1-(7-acetyl-2,7-diazaspiro[4.4]nonane-2-carbonyl)-5-amino-pentyl]-2-[[(2R)-2-[[(2R)-2-amino-3-phenyl-propanoyl]amino]-3-phenyl-propanoyl]amino]-4-methyl-pentanamide; di-trifluoroacetic acid] | 0.0136 | 
CC(C)C[C@@H](NC(=O)[C@@H](Cc1ccccc1)NC(=O)[C@H](N)Cc1ccccc1)C(=O)N[C@H](CCCCN)C(=O)N1CC2(CCN(C3COC3)CC2)C1 [Compound 33, (2R)—N-[(1R)-5-amino-1-[7-(oxetan-3-yl)-2,7-diazaspiro[3.5]nonane-2-carbonyl]pentyl]-2-[[(2R)-2-[[(2R)-2-amino-3-phenyl-propanoyl]amino]-3-phenyl-propanoyl]amino]-4-methyl-pentanamide; tri-trifluoroacetic acid] | 0.05 | 
